The values below come from US11427558B1, “Indazoles and azaindazoles as LRRK2 inhibitors” (ESCAPE Bio, Inc., priority 2019, dated 2022).

Test [1] deals with Recombinant wild type LRRK2 protein (Homo sapiens (Human), UniProt Q5S007). In words: LRRK2 kinase activity, LanthaScreen TR-FRET assay (wild type). It is filed as biochemical. To be noted: LRRKtide 400 nM, 25 μM ATP, 60 min; read-out: LRRK2 WT IC50. As for the experimental part:
(§1) LRRK2 kinase activity was measured using a LanthaScreen™ Kinase Activity Assay from ThermoFisher Scientific. Recombinant wild type or G2019S-LRRK2 protein (Life Technologies, PR8604B or PV4881, respectively), was incubated with a fluorescein-labeled peptide substrate called LRRKtide that is based upon ezrin/radixin/moesin (ERM) (Life Technologies, PV4901) in the presence of ATP and serially diluted compound. […] Compound-dependent inhibition of the TR-FRET signal was used to generate a concentration-response curve for IC50 determination.
(§2) After 60 min incubation at room temperature, the reaction was stopped by addition of 10 μL of 2× stop solution containing a final concentration of 2 nM anti-pERM antibody and 10 mM EDTA. […] The ratio of the 520 nm and 495 nm emission was used to analyze the data.

Test [2] concerns the target Recombinant G2019S-LRRK2 protein (Homo sapiens (Human), UniProt Q5S007, G2019S). The test can be described thus: LRRK2 kinase activity, LanthaScreen TR-FRET assay (G2019S). It is filed as biochemical. To be noted: LRRKtide 400 nM, 25 μM ATP, 60 min. As for the experimental part: as §1, §2

Recombinant wild type LRRK2 protein, sequence (Q5S007 whole entry): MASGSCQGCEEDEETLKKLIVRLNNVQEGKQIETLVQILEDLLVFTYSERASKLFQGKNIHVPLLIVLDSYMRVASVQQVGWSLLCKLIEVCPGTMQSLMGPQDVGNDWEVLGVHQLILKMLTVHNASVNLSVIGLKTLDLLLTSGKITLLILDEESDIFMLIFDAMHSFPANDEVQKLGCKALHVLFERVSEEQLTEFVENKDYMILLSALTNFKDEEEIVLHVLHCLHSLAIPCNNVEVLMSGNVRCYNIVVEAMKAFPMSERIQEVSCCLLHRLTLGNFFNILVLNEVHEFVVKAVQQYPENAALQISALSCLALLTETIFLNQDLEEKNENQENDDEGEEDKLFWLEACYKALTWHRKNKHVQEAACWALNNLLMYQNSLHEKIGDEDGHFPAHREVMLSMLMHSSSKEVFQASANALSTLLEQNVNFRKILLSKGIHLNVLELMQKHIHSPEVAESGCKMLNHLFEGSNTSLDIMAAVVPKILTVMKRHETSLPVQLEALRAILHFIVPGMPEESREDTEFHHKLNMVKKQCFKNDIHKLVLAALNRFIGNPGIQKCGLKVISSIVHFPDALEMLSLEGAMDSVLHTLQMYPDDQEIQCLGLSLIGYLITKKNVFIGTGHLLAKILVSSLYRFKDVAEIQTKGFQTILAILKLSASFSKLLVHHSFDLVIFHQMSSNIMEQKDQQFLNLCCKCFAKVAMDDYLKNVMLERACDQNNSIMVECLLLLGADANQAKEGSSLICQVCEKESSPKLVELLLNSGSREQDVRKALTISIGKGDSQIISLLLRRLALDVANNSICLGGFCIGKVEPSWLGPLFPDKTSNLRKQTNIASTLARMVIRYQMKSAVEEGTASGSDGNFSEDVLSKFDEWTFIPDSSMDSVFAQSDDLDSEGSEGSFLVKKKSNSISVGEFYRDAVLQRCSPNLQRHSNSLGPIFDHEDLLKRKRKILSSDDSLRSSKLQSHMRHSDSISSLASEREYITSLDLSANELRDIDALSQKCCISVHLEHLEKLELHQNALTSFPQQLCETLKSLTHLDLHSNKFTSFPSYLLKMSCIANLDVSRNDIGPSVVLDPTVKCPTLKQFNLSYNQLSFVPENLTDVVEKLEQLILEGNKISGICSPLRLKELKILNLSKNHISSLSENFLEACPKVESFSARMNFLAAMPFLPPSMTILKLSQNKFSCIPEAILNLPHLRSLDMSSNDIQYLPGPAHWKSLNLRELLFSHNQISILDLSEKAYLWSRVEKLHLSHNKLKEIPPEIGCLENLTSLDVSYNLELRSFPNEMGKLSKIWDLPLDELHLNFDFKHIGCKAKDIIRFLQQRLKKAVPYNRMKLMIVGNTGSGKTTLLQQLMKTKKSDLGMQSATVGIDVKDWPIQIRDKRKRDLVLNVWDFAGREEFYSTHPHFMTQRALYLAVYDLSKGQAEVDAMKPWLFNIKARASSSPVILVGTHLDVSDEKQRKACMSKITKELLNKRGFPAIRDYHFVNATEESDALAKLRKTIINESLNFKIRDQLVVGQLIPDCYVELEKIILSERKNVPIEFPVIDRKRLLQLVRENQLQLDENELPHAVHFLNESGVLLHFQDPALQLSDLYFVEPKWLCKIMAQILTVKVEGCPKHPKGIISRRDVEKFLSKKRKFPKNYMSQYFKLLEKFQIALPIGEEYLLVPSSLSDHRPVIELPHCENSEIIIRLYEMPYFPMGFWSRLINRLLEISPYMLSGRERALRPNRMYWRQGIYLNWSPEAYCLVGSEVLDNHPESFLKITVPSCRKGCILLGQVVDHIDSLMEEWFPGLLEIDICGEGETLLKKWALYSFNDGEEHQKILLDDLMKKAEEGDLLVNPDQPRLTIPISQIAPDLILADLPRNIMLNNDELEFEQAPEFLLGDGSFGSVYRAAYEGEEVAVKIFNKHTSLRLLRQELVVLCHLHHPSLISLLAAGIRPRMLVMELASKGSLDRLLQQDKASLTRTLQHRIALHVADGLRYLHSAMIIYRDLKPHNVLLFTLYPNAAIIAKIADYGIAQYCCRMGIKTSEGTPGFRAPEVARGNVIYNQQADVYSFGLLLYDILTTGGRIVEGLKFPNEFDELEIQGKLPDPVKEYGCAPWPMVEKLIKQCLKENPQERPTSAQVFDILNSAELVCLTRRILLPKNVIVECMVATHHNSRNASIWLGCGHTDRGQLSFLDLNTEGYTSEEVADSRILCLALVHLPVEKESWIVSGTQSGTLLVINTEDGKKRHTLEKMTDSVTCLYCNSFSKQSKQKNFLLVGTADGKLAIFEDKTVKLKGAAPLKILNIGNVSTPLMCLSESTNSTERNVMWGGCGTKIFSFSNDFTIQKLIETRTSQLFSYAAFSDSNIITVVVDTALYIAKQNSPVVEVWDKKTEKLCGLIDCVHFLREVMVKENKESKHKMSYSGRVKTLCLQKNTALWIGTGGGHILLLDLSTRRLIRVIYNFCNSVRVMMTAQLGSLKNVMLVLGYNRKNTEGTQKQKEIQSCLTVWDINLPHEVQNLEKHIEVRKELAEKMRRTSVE
Recombinant G2019S-LRRK2 protein, sequence (Q5S007 whole entry G2019S): as the sequence (Q5S007 whole entry) above, with G2019S counted along it

`Cc1c(C#N)nn(C)c1C(=O)Nc1ccc2[nH]nc(-c3cnoc3)c2c1` [Example 196, 3-Cyano-N-(3-(isoxazol-4-yl)-1H-indazol-5-yl)-1,4-dimethyl-1H-pyrazole-5-carboxamide]: the IC50 was 100 to 1000 nM in test [1] and below 100 nM in test [2].
On the same counts, the results for `Cc1c(C(=O)Nc2ccc3[nH]nc(-c4cnco4)c3c2)nc(Cl)c(C#N)c1C` [Example 184, 6-Chloro-5-cyano-3,4-dimethyl-N-(3-(oxazol-5-yl)-1H-indazol-5-yl)picolinamide] are below 100 nM and below 100 nM.
On the same counts, the results for `Cc1c(C#N)cnc(C(=O)Nc2ccc3[nH]nc(F)c3c2)c1C` [Example 315, 5-Cyano-N-(3-fluoro-1H-indazol-5-yl)-3,4-dimethylpicolinamide] are 1000 to 10000 nM and below 100 nM.
Consider `N#Cc1cccc(C(=O)Nc2ccc3[nH]nc(-c4ccoc4)c3c2)c1F` [Example 77, 3-Cyano-2-fluoro-N-(3-(furan-3-yl)-1H-indazol-5-yl)benzamide], for which the half-inhibitory concentration (IC50) in test [1] and in test [2] was below 100 nM each time.
In the case of `Cc1c(C(=O)Nc2ccc3[nH]nc(-c4ccnc(N5CCOCC5)c4)c3c2)nc(Cl)c(C#N)c1C` [Example 278, 6-Chloro-5-cyano-3,4-dimethyl-N-(3-(2-morpholinopyridin-4-yl)-1H-indazol-5-yl)picolinamide], the IC50 in test [1] and in test [2] was below 100 nM in each case.
As for `Cc1c(C#N)cnc(C(=O)Nc2ccc3[nH]nc(-c4cnn(CF)c4)c3c2)c1C` [Example 172, 5-Cyano-N-(3-(1-(fluoromethyl)-1H-pyrazol-4-yl)-1H-indazol-5-yl)-3,4-dimethylpicolinamide], the IC50 in test [1] and in test [2] was below 100 nM throughout.
For the molecule `Cc1c(C(=O)Nc2ccc3[nH]nc(C(F)(F)F)c3c2)nc(Cl)c(C#N)c1C` [Example 293, 6-Chloro-5-cyano-3,4-dimethyl-N-(3-(trifluoromethyl)-1H-indazol-5-yl)picolinamide], the IC50 in test [1] and in test [2] was below 100 nM each time.
In the case of `N#Cc1cnc(C(=O)Nc2ccc3[nH]nc(-c4cnoc4)c3c2)c(C2CC2)c1` [Example 310, 5-Cyano-3-cyclopropyl-N-(3-(isoxazol-4-yl)-1H-indazol-5-yl)picolinamide], the IC50 in test [1] is 100 to 1000 nM; in test [2], below 100 nM.
On the same counts, the results for `Cc1c(C#N)cnc(C(=O)Nc2ccc3[nH]nc(-c4cnn(C5CC5)c4)c3c2)c1C` [Example 335, 5-Cyano-N-(3-(1-cyclopropyl-1H-pyrazol-4-yl)-1H-indazol-5-yl)-3,4-dimethylpicolinamide] are below 100 nM and below 100 nM.
On the same counts, the results for `Cc1cc(C#N)cnc1C(=O)Nc1ccc2[nH]nc(-c3ccc(C(F)(F)F)cc3)c2c1` [Example 35, 5-Cyano-3-methyl-N-(3-(4-(trifluoromethyl)phenyl)-1H-indazol-5-yl)picolinamide] are above 10000 nM and 100 to 1000 nM.
For `Cc1ccc(-c2n[nH]c3ccc(NC(=O)c4ncc(C#N)cc4C)cc23)cc1C` [Example 28, 5-Cyano-N-(3-(3,4-dimethylphenyl)-1H-indazol-5-yl)-3-methylpicolinamide], the IC50 in test [1] was 100 to 1000 nM; in test [2], below 100 nM.
The matching figures for `COc1nc(C(=O)Nc2ccc3[nH]nc(C4CC4)c3c2)c(C)c(C)c1C#N` [Example 304, 5-Cyano-N-(3-cyclopropyl-1H-indazol-5-yl)-6-methoxy-3,4-dimethylpicolinamide]: below 100 nM and below 100 nM.
On the same counts, the results for `CC(C)c1cc(C#N)cnc1C(=O)Nc1ccc2[nH]nc(-c3cnco3)c2c1` [Example 251, 5-Cyano-3-isopropyl-N-(3-(oxazol-5-yl)-1H-indazol-5-yl)picolinamide] are 100 to 1000 nM and below 100 nM.
On the same counts, the results for `Cc1c(C#N)cnc(C(=O)Nc2ccc3[nH]nc(-c4cnn(C(F)F)c4)c3c2)c1C` [Example 157, 5-Cyano-N-(3-(1-(difluoromethyl)-1H-pyrazol-4-yl)-1H-indazol-5-yl)-3,4-dimethylpicolinamide] are below 100 nM and below 100 nM.
Take `Cc1cc(C#N)cnc1C(=O)Nc1ccc2[nH]nc(-c3ccnc(N4C[C@H](C)O[C@@H](C)C4)c3)c2c1` [Example 115, 5-Cyano-N-(3-(2-((2S,6S)-2,6-dimethylmorpholino)pyridin-4-yl)-1H-indazol-5-yl)-3-methylpicolinamide]: the IC50 in test [1] and in test [2] was below 100 nM in each case.
For `Cc1cc(-c2n[nH]c3ccc(NC(=O)c4ncc(C#N)c(C)c4C)cc23)on1` [Example 229, 5-Cyano-3,4-dimethyl-N-(3-(3-methylisoxazol-5-yl)-1H-indazol-5-yl)picolinamide], the IC50 in test [1] and in test [2] was below 100 nM in each case.
For the molecule `Cc1oc(C#N)cc1C(=O)Nc1ccc2[nH]nc(-c3ccccc3)c2c1` [Example 27, 5-Cyano-2-methyl-N-(3-phenyl-1H-indazol-5-yl)furan-3-carboxamide], the IC50 was 100 to 1000 nM in test [1] and below 100 nM in test [2].
On the same counts, the results for `Cn1cc(C#N)cc1C(=O)Nc1ccc2[nH]nc(-c3cnoc3)c2c1` [Example 247, 4-Cyano-N-(3-(isoxazol-4-yl)-1H-indazol-5-yl)-1-methyl-1H-pyrrole-2-carboxamide] are below 100 nM and below 100 nM.
The matching figures for `Cc1cc(C#N)cnc1C(=O)Nc1ccc2[nH]nc(-c3ccc(C#N)s3)c2c1` [Example 131, 5-Cyano-N-(3-(5-cyanothiophen-2-yl)-1H-indazol-5-yl)-3-methylpicolinamide]: 100 to 1000 nM and below 100 nM.
Regarding `Cc1cc(C#N)cnc1C(=O)Nc1ccc2[nH]nc(-c3ccncc3)c2c1` [Example 31, 5-Cyano-3-methyl-N-(3-(pyridin-4-yl)-1H-indazol-5-yl)picolinamide], the IC50 in test [1] was 100 to 1000 nM; in test [2], below 100 nM.
The matching figures for `Cc1cc(C#N)cnc1C(=O)Nc1ccc2[nH]nc(-n3ccnc3)c2c1` [Example 126, N-(3-(1H-Imidazol-1-yl)-1H-indazol-5-yl)-5-cyano-3-methylpicolinamide]: 100 to 1000 nM and below 100 nM.
`Cc1c(C#N)cnc(C(=O)Nc2ccc3[nH]nc(-c4cnoc4)c3c2)c1C` [Example 168, 5-Cyano-N-(3-(isoxazol-4-yl)-1H-indazol-5-yl)-3,4-dimethylpicolinamide]: the IC50 in test [1] and in test [2] was below 100 nM each time.
As to `Cc1cc(C#N)cnc1C(=O)Nc1ccc2[nH]nc(-c3cccc(OC(F)(F)F)c3)c2c1` [Example 54, 5-Cyano-3-methyl-N-(3-(3-(trifluoromethoxy)phenyl)-1H-indazol-5-yl)picolinamide], the results for the IC50 in test [1] and in test [2] were 1000 to 10000 nM and 100 to 1000 nM, respectively.
The matching figures for `Cn1cc(C(=O)Nc2ccc3[nH]nc(-c4cnco4)c3c2)cc(C#N)c1=O` [Example 224, 5-cyano-1-methyl-N-(3-(oxazol-5-yl)-1H-indazol-5-yl)-6-oxo-1,6-dihydropyridine-3-carboxamide]: below 100 nM and below 100 nM.
The matching figures for `Cc1cc(C#N)cc(C)c1C(=O)Nc1ccc2[nH]nc(-c3ccoc3)c2c1` [Example 10, 4-Cyano-N-(3-(furan-3-yl)-1H-indazol-5-yl)-2,6-dimethylbenzamide]: below 100 nM and below 100 nM.
The matching figures for `Cc1c(C(=O)Nc2ccc3[nH]nc(C)c3c2)nc(Cl)c(C#N)c1C` [Example 298, 6-Chloro-5-cyano-3,4-dimethyl-N-(3-methyl-1H-indazol-5-yl)picolinamide]: below 100 nM and below 100 nM.
With `COc1c(C#N)cccc1C(=O)Nc1ccc2[nH]nc(-c3ccoc3)c2c1` [Example 72, 3-Cyano-N-(3-(furan-3-yl)-1H-indazol-5-yl)-2-methoxybenzamide], the IC50 in test [1] and in test [2] was below 100 nM throughout.
As for `Cc1cc(C#N)cc(F)c1C(=O)Nc1ccc2[nH]nc(-c3cnco3)c2c1` [Example 190, 4-Cyano-2-fluoro-6-methyl-N-(3-(oxazol-5-yl)-1H-indazol-5-yl)benzamide], the IC50 in test [1] and in test [2] was below 100 nM in each case.
As to `Cc1cc(C(=O)Nc2ccc3[nH]nc(-c4ccoc4)c3c2)nc(C)c1C#N` [Example 85, 5-cyano-N-(3-(furan-3-yl)-1H-indazol-5-yl)-4,6-dimethylpicolinamide], the 50% inhibitory concentration (IC50) in test [1] was 1000 to 10000 nM; in test [2] it was below 100 nM.
On the same counts, the results for `Cc1c(C#N)cccc1C(=O)Nc1ccc2[nH]nc(-c3ccoc3)c2c1` [Example 19, 3-Cyano-N-(3-(furan-3-yl)-1H-indazol-5-yl)-2-methylbenzamide] are below 100 nM and below 100 nM.
The matching figures for `Cc1c(C(=O)Nc2ccc3[nH]nc(C)c3c2)ncc(C#N)c1Cl` [Example 306, 4-Chloro-5-cyano-3-methyl-N-(3-methyl-1H-indazol-5-yl)picolinamide]: 100 to 1000 nM and below 100 nM.
The matching figures for `Cc1cc(C#N)cnc1C(=O)Nc1ccc2[nH]nc(OCc3ccccc3)c2c1` [Example 255, N-(3-(Benzyloxy)-1H-indazol-5-yl)-5-cyano-3-methylpicolinamide]: 100 to 1000 nM and below 100 nM.
Take `Cc1cc(C#N)ncc1C(=O)Nc1ccc2[nH]nc(-c3ccoc3)c2c1` [Example 49, 6-Cyano-N-(3-(furan-3-yl)-1H-indazol-5-yl)-4-methylnicotinamide]: the IC50 in test [1] is 100 to 1000 nM; in test [2], below 100 nM.
